{
  "source": "patent US12134663B2",
  "about": "“Cationic peptides for activating Lck” (Interk Peptide Therapeutics Limited, priority 2018, dated 2024)",
  "key": {"[1]": {"tested_on": "wild-type Jurkat cells", "assay": "IL-2R alpha (CD25) expression in PMA/ionomycin stimulated Jurkat cells", "assay_type": "cell-based, human", "conditions": "PMA and ionomycin stimulated; peptide 2.5 μM, 96 hours; cell lysates", "description": "In brief, wild-type Jurkat cells (1×10^6 cells) were cultured in standard RPMI medium and 10% foetal calf serum as above and either not stimulated or stimulated with PMA (50 ng/ml) and ionomycin for a period of 96 hours. Cells were exposed to the test peptides (2.5 μM conc.) listed in FIG. 10 for the entire 96 hour culture period, and IL-2R alpha levels were determined in cell lysates using a standard commercial ELISA format as described above."}, "[2]": {"tested_on": "isolated human CD4+ T cells", "assay": "IFN-γ secretion in stimulated CD4+ T cell assay", "assay_type": "cell-based", "conditions": "anti-CD3 anti-CD28 Dynabeads, 24 hours", "description": "(§1) The ability of Lck activating polypeptides to alter IFN-γ secretion by isolated human CD4+ T cells in a stimulated CD4+ T cell assay was also examined. In brief, Isolated CD4+ T cells were stimulated with anti-CD3 anti-CD28 Dynabeads™ and cultured together with the Lck activating polypeptides RRRRRRRRR (SEQ ID NO: 6, IK00900) and RSKAKNPLY-RRRRRRRRR (SEQ ID NO: 24, IK14800) for 24 hours after which supernatants were assessed for IFN-γ by ELISA.\nas §1, with “polypeptides comprising D amino acids” for “polypeptides”, “polypeptide” for “polypeptides RRRRRRRRR (SEQ ID NO: 6, IK00900) and”, “IK14800), or the Lck activating polypeptide RSKAKNPLY-RRRRRRRRR (SEQ ID NO: 24) comprising only D amino acids (SEQ ID NO: 129, IKD14800),” for “IK14800)”"}, "[3]": {"tested_on": "wild-type Jurkat cells", "assay": "IL-2 secretion in stimulated wild-type Jurkat cells (ELISA)", "assay_type": "cell-based, human", "conditions": "biotinylated anti-CD3, anti-CD28, avidin; 48 h exposure", "description": "(§2) In brief, wild-type Jurkat cells (an immortalised line of human T lymphocyte cells) were stimulated by exposure to biotinylated anti-CD3 antibody in the presence of anti-CD28 antibody and avidin. During the culture period (48 hours or 72 hours) cells were exposed to test polypeptides. Cell supernatant was assayed for IL-2 at the end of 48 or 72 hours using a standard commercially available ELISA kit as described above.\nIn brief, cells were seeded at 1 million cells per well (12 well plate, 2 mL volume) and stimulated with Biotin-CD3, CD28, and avidin (5:5:1.25 μg). The cells were then treated with IK14804, and then incubated for 48 hours at 37° C. The supernatant (100 uL, n=3), was then analyzed for IL-2 content.\n(§3) In brief, wild-type Jurkat cells (am immortalised line of human T lymphocyte cells) were stimulated by exposure to biotinylated anti-CD3 antibody in the presence of anti-CD28 antibody and avidin. Cells were seeded at 1 million cells per well (12 well plate, 2 mL volume) and stimulated with Biotin-anti-CD3, anti-CD28, and avidin (5:5:1.25 μg). Cells were treated with the test peptides and then incubated for 48 hours at 37° C. The supernatants (100 ul, n=3), were then analysed for IL-2 and IL-12 content. During the culture period (48 hours) cells were exposed to test polypeptide RSKAKNPLYR-(2Adod)4-NH2 (SEQ ID NO: 128). Cell supernatant was assayed for IL-2 and IL-12 at the end of 48 hours using standard commercially available ELISA kit as described above."}, "[4]": {"tested_on": "isolated CD4+ T cells", "assay": "IL-21R (CD360) expression in stimulated CD4+ T cell assay", "assay_type": "cell-based, human", "conditions": "anti-CD3 anti-CD28 Dynabeads; data not shown", "description": "The effect of Lck activating polypeptides on IL-21R (CD360) expression on CD4+ T cells in a stimulated CD4+ T cell assay was examined. In brief, Isolated CD4+ T cells were stimulated with anti-CD3 anti-CD28 Dynabeads™ and cultured together with the Lck activating polypeptides RRRRRRRRR (SEQ ID NO: 6) and RSKAKNPLY-RRRRRRRRR (SEQ ID NO: 24), after which cells were assessed for IL-21R expression by flow cytometry."}, "[5]": {"tested_on": "wild-type Jurkat cells", "assay": "IL-12 secretion in stimulated wild-type Jurkat cells (ELISA)", "assay_type": "cell-based, human", "conditions": "biotinylated anti-CD3, anti-CD28, avidin; 48 h exposure", "description": "as §2, with “The ability of Lck activating polypeptides to alter IL-12 secretion was examined. In” for “In”, “(48” for “(48 hours or 72”, “IL-12” for “IL-2”, “48” for “48 or 72”\nIn brief, cells were seeded at 1 million cells per well (12 well plate, 2 mL volume) and stimulated with Biotin-CD3, CD28, and avidin (5:5:1.25 μg). The cells were then treated with IK14800 (SEQ ID NO: 24), IK15800 (SEQ ID NO: 58), IK14804 (SEQ ID NO: 65) and IK15804 (SEQ ID NO: 66). The cells were then incubated for 48 hours at 37° C. The supernatants (100 uL, n=3), were then analyzed for IL-12 content.\nas §3, with “During the culture period (48 hours) cells were exposed to test polypeptide RSKAKNPLYR-(2Adod)4-NH2 (SEQ ID NO: 128). Cell supernatant was assayed for IL-2 and IL-12 at the end of 48 hours using standard commercially available ELISA kit as described above.” left out"}, "[6]": {"tested_on": "isolated human CD8+ T cells", "assay": "IFN-γ secretion in stimulated CD8+ T cell assay", "assay_type": "cell-based", "conditions": "anti-CD3 anti-CD28 Dynabeads, 24 hours", "description": "as §1, with “CD8+” for “CD4+”, “was” for “was also”\nIn brief, Isolated CD8+ T cells were stimulated with anti-CD3 anti-CD28 Dynabeads™ and cultured together with the Lck activating polypeptide RSKAKNPLY-RRRRRRRRR (SEQ ID NO: 24), comprising only D amino acids (SEQ ID NO: 129, IKD14800), for 24 hours after which supernatants were assessed for IFN-γ by ELISA."}, "[7]": {"tested_on": "human PBMCs", "assay": "IFN-γ secretion by anti-CD3 stimulated PBMCs", "assay_type": "cell-based", "conditions": "48 hours; data not shown", "description": "The ability of Lck activating polypeptides to alter IFN-γ secretion by human PBMCs was examined. In brief, anti-CD3 stimulated PBMCs were cultured together with the Lck activating polypeptides RRRRRRRRR (SEQ ID NO: 6), RVKVKVVVV-RRRRRRRRR (SEQ ID NO: 58) and RSKAKNPLY-RRRRRRRRR (SEQ ID NO: 24) for 48 hours after which supernatants were collected and assessed for IFN-γ by ELISA."}, "[8]": {"tested_on": "anti-CD3 stimulated PBMCs", "assay": "IL-12p70 secretion in anti-CD3 stimulated PBMCs", "assay_type": "cell-based, human", "conditions": "24 hours", "description": "The ability of Lck activating polypeptides to alter IL-12 (IL-12p70) secretion was examined further. In brief, anti-CD3 stimulated PBMCs were cultured together with the Lck activating polypeptides RVKVKVVVV-RRRRRRRRR (SEQ ID NO: 58, “IK15800”), RSKAKNPLY-RRRRRRRRR (SEQ ID NO: 24, “IK14800”), and RVKVKVVVV-RRRRRRRRR (SEQ ID NO: 58) and RSKAKNPLY-RRRRRRRRR (SEQ ID NO: 24) comprising only D amino acids (SEQ ID NO: 111, “IKD15800”, and SEQ ID NO: 129, “IKD14800”, respectively), in the presence and absence of anti-CD40L blocking antibody for 24 hours. Supernatants were assessed for IL-12p70 levels by ELISA.\nThe ability of Lck activating polypeptides to alter IL-12 (IL-12p70) secretion was examined relative to no peptide. In brief, PBMCs were cultured together with anti-CD3 (1 ug/ml) and the Lck activating polypeptide RSKAKNPLY-RRRRRRRRR (SEQ ID NO: 24) or RVKVKVVVV-RRRRRRRRR (SEQ ID NO: 58) for 24 or 72 hours. Supernatants were assessed for IL-12p70 levels by ELISA."}, "[9]": {"tested_on": "isolated human CD4+ T cells", "assay": "IL-2 secretion from isolated stimulated CD4+ T cells", "assay_type": "cell-based", "conditions": "anti-CD3 anti-CD28 Dynabeads, 0-1.25 μM, 24 hours; data not shown", "description": "In brief, CD4+ and CD8+ T cells were isolated and immuno-magnetically separated from healthy human PBMCs. Levels of IL-2 were examined following anti-CD3 and anti-CD28 stimulation for 48 hours in the presence the Lck activating fusion polypeptide RSKAKNPLY-RRRRRRRRR (SEQ ID NO: 24).\nThe effect of Lck activating polypeptides on IL-2 secretion from CD4+ T cells in a stimulated CD4+ T cell assay was also examined. In brief, Isolated CD4+ T cells were stimulated with anti-CD3 anti-CD28 Dynabeads™ and cultured together with the Lck activating polypeptides RRRRRRRRR (SEQ ID NO: 6, “IK00900”) and RSKAKNPLY-RRRRRRRRR (SEQ ID NO: 24, “IK14800”), over a 5-concentration range plus vehicle control (0-1.25 μM) for 24 hours after which supernatants were assessed for IL-2 and IFN-γ by ELISA."}, "[10]": {"tested_on": "CD4+ T cells", "assay": "IL-21 production by CD4+ T cells", "assay_type": "cell-based", "conditions": "anti-CD3 anti-CD28, 48 hr; detected in one donor only", "description": "In brief, CD4+ T cells were isolated and cultured in the presence of anti-CD3 anti-CD28 stimulation and RSKAKNPLY-RRRRRRRRR (SEQ ID NO: 24) for 24 hr or 48 hr. At the end of culture, supernatants were assessed for IL-21 by ELISA."}},
  "note": "Where no end group is shown, it is not given here. [ ]: non-standard residue; d: D form.",
  "data": [
    {"substance": "HHHHH-RSKAKNPLY-RRRRRRRRR (HHHHHRSKAKNPLYRRRRRRRRR) [IK11480]", "values": [
      {"measurement": "IL-2R alpha (CD25) expression", "setting": "[1]", "value": "increased"}
    ]},
    {"substance": "RRRRRRRRR [IK00900]", "values": [
      {"measurement": "IFN-γ secretion relative to no peptide control", "setting": "[2]", "value": "induced IFN-γ secretion"},
      {"measurement": "IL-2 secretion relative to control", "setting": "[3]", "value": "induces IL-2 secretion"},
      {"measurement": "IL-21R expression", "setting": "[4]", "value": "do not increase IL-21R expression"},
      {"measurement": "IL-12 secretion relative to control", "setting": "[5]", "value": "induced IL-12 secretion"},
      {"measurement": "IFN-γ secretion relative to no peptide control", "setting": "[6]", "value": "induced IFN-γ secretion"},
      {"measurement": "IFN-γ secretion relative to no peptide control", "setting": "[7]", "value": "induce IFN-γ secretion"},
      {"measurement": "IL-12 (IL-12p70) secretion relative to cultures with anti-CD40L blocking antibody", "setting": "[8]", "value": "induced IL-12 secretion"},
      {"measurement": "IL-2 secretion relative to control", "setting": "[9]", "value": "induce IL-2 secretion"}
    ]},
    {"substance": "RSKAKNPLY-RRRRRRRRRR (RSKAKNPLYRRRRRRRRRR) [IK14900]", "values": [
      {"measurement": "IL-2R alpha (CD25) expression", "setting": "[1]", "value": "increased"}
    ]},
    {"substance": "rskaknply ([dR][dS][dK][dA][dK][dN][dP][dL][dY]) [IKD94000]", "values": [
      {"measurement": "IL-12 secretion relative to control", "setting": "[5]", "value": "increase IL-12 secretion"}
    ]},
    {"substance": "RSKAKNPLY-RRRRRRRRR-HHHHHHHHHHHH (RSKAKNPLYRRRRRRRRRHHHHHHHHHHHH) [IK14820]", "values": [
      {"measurement": "IL-2R alpha (CD25) expression", "setting": "[1]", "value": "increased"}
    ]},
    {"substance": "IL-6: control in FIG. 28 showing boost to IL-21 secretion", "values": [
      {"measurement": "IL-21 production", "setting": "[10]", "value": "boost to IL-21 secretion"}
    ]}
  ]
}
